test: (§1) The drug is tested on Z-013 corresponding to rabbit gut metagenome with ENA study accession number: PRJEB37062 and ENA sample accession number: ERS12561813 for biotransformation under anaerobic condition. The drug concentrations were measured over 9 timepoints collected between 0 and 24 hours of incubation by liquid-chromatography-coupled mass spectrometry (LC–MS); conditions: 2 µM
Further: call rule not given here.

| Bacterial Biotransformation | Compound |
| --- | --- |
| Compound NOT metabolized | CC[C@H](C)C(=O)O[C@H]1CCC=C2C=C[C@H](C)[C@H](CC[C@@H]3C[C@@H](O)CC(=O)O3)[C@H]21 [MEVASTATIN] |
| Compound NOT metabolized | COc1ccc2cc([C@H](C)C(=O)O)ccc2c1 [NAPROXEN] |

test: as §1, with “Z-009” for “Z-013”, “pig” for “rabbit”, “ERS12561809” for “ERS12561813”; conditions: 2 µM

| Bacterial Biotransformation | Compound |
| --- | --- |
| Compound NOT metabolized | CC[C@H](C)C(=O)O[C@H]1CCC=C2C=C[C@H](C)[C@H](CC[C@@H]3C[C@@H](O)CC(=O)O3)[C@H]21 [MEVASTATIN] |
| Compound NOT metabolized | COc1ccc2cc([C@H](C)C(=O)O)ccc2c1 [NAPROXEN] |

test: as §1, with “Z-008” for “Z-013”, “to” for “to rabbit gut”, “ERS12561808” for “ERS12561813”; conditions: 2 µM

| Bacterial Biotransformation | Compound |
| --- | --- |
| Compound NOT metabolized | CC[C@H](C)C(=O)O[C@H]1CCC=C2C=C[C@H](C)[C@H](CC[C@@H]3C[C@@H](O)CC(=O)O3)[C@H]21 [MEVASTATIN] |
| Compound NOT metabolized | COc1ccc2cc([C@H](C)C(=O)O)ccc2c1 [NAPROXEN] |

conditions: human gut metagenome, 24 h, 2 µM

| Bacterial Biotransformation | Compound |
| --- | --- |
| Compound metabolized | CC[C@H](C)C(=O)O[C@H]1CCC=C2C=C[C@H](C)[C@H](CC[C@@H]3C[C@@H](O)CC(=O)O3)[C@H]21 [MEVASTATIN] |
| Compound metabolized | COc1ccc2cc([C@H](C)C(=O)O)ccc2c1 [NAPROXEN] |

conditions: human gut metagenome, 24 h, 2 µM; remark: another data set of the same source

| Bacterial Biotransformation | Compound |
| --- | --- |
| Compound metabolized | CC[C@H](C)C(=O)O[C@H]1CCC=C2C=C[C@H](C)[C@H](CC[C@@H]3C[C@@H](O)CC(=O)O3)[C@H]21 [MEVASTATIN] |
| Compound metabolized | COc1ccc2cc([C@H](C)C(=O)O)ccc2c1 [NAPROXEN] |

conditions: human gut metagenome, 24 h, 2 µM; remark: another data set of the same source

| Bacterial Biotransformation | Compound |
| --- | --- |
| Compound NOT metabolized | CC[C@H](C)C(=O)O[C@H]1CCC=C2C=C[C@H](C)[C@H](CC[C@@H]3C[C@@H](O)CC(=O)O3)[C@H]21 [MEVASTATIN] |
| Compound metabolized | COc1ccc2cc([C@H](C)C(=O)O)ccc2c1 [NAPROXEN] |

test: as §1, with “WLS-073” for “Z-013”, “human” for “rabbit”, “ERS12561749” for “ERS12561813”; conditions: 2 µM

| Bacterial Biotransformation | Compound |
| --- | --- |
| Compound NOT metabolized | CC[C@H](C)C(=O)O[C@H]1CCC=C2C=C[C@H](C)[C@H](CC[C@@H]3C[C@@H](O)CC(=O)O3)[C@H]21 [MEVASTATIN] |
| Compound NOT metabolized | COc1ccc2cc([C@H](C)C(=O)O)ccc2c1 [NAPROXEN] |

test: as §1, with “Z-026” for “Z-013”, “to” for “to rabbit gut”, “ERS12561825” for “ERS12561813”; conditions: 2 µM

| Bacterial Biotransformation | Compound |
| --- | --- |
| Compound metabolized | CC[C@H](C)C(=O)O[C@H]1CCC=C2C=C[C@H](C)[C@H](CC[C@@H]3C[C@@H](O)CC(=O)O3)[C@H]21 [MEVASTATIN] |
| Compound NOT metabolized | COc1ccc2cc([C@H](C)C(=O)O)ccc2c1 [NAPROXEN] |

conditions: human gut metagenome, 24 h, 2 µM; remark: another data set of the same source

| Bacterial Biotransformation | Compound |
| --- | --- |
| Compound metabolized | CC[C@H](C)C(=O)O[C@H]1CCC=C2C=C[C@H](C)[C@H](CC[C@@H]3C[C@@H](O)CC(=O)O3)[C@H]21 [MEVASTATIN] |
| Compound metabolized | COc1ccc2cc([C@H](C)C(=O)O)ccc2c1 [NAPROXEN] |

test: as §1, with “WLS-090” for “Z-013”, “human” for “rabbit”, “ERS12561753” for “ERS12561813”; conditions: 2 µM

| Bacterial Biotransformation | Compound |
| --- | --- |
| Compound metabolized | CC[C@H](C)C(=O)O[C@H]1CCC=C2C=C[C@H](C)[C@H](CC[C@@H]3C[C@@H](O)CC(=O)O3)[C@H]21 [MEVASTATIN] |
| Compound metabolized | COc1ccc2cc([C@H](C)C(=O)O)ccc2c1 [NAPROXEN] |

conditions: human gut metagenome, 24 h, 2 µM; remark: another data set of the same source

| Bacterial Biotransformation | Compound |
| --- | --- |
| Compound NOT metabolized | CC[C@H](C)C(=O)O[C@H]1CCC=C2C=C[C@H](C)[C@H](CC[C@@H]3C[C@@H](O)CC(=O)O3)[C@H]21 [MEVASTATIN] |
| Compound NOT metabolized | COc1ccc2cc([C@H](C)C(=O)O)ccc2c1 [NAPROXEN] |

conditions: human gut metagenome, 24 h, 2 µM; remark: another data set of the same source

| Bacterial Biotransformation | Compound |
| --- | --- |
| Compound NOT metabolized | CC[C@H](C)C(=O)O[C@H]1CCC=C2C=C[C@H](C)[C@H](CC[C@@H]3C[C@@H](O)CC(=O)O3)[C@H]21 [MEVASTATIN] |
| Compound metabolized | COc1ccc2cc([C@H](C)C(=O)O)ccc2c1 [NAPROXEN] |

test: as §1, with “Z-023” for “Z-013”, “to” for “to rabbit gut”, “ERS12561822” for “ERS12561813”; conditions: 2 µM

| Bacterial Biotransformation | Compound |
| --- | --- |
| Compound metabolized | CC[C@H](C)C(=O)O[C@H]1CCC=C2C=C[C@H](C)[C@H](CC[C@@H]3C[C@@H](O)CC(=O)O3)[C@H]21 [MEVASTATIN] |
| Compound NOT metabolized | COc1ccc2cc([C@H](C)C(=O)O)ccc2c1 [NAPROXEN] |

test: as §1, with “Z-021” for “Z-013”, “to” for “to rabbit gut”, “ERS12561820” for “ERS12561813”; conditions: 2 µM

| Bacterial Biotransformation | Compound |
| --- | --- |
| Compound NOT metabolized | CC[C@H](C)C(=O)O[C@H]1CCC=C2C=C[C@H](C)[C@H](CC[C@@H]3C[C@@H](O)CC(=O)O3)[C@H]21 [MEVASTATIN] |
| Compound NOT metabolized | COc1ccc2cc([C@H](C)C(=O)O)ccc2c1 [NAPROXEN] |

test: as §1, with “Z-016” for “Z-013”, “mouse” for “rabbit”, “ERS12561815” for “ERS12561813”; conditions: 2 µM

| Bacterial Biotransformation | Compound |
| --- | --- |
| Compound NOT metabolized | CC[C@H](C)C(=O)O[C@H]1CCC=C2C=C[C@H](C)[C@H](CC[C@@H]3C[C@@H](O)CC(=O)O3)[C@H]21 [MEVASTATIN] |
| Compound NOT metabolized | COc1ccc2cc([C@H](C)C(=O)O)ccc2c1 [NAPROXEN] |

conditions: human gut metagenome, 24 h, 2 µM; remark: another data set of the same source

| Bacterial Biotransformation | Compound |
| --- | --- |
| Compound NOT metabolized | CC[C@H](C)C(=O)O[C@H]1CCC=C2C=C[C@H](C)[C@H](CC[C@@H]3C[C@@H](O)CC(=O)O3)[C@H]21 [MEVASTATIN] |
| Compound NOT metabolized | COc1ccc2cc([C@H](C)C(=O)O)ccc2c1 [NAPROXEN] |

test: as §1, with “Z-024” for “Z-013”, “pig” for “rabbit”, “ERS12561823” for “ERS12561813”; conditions: 2 µM

| Bacterial Biotransformation | Compound |
| --- | --- |
| Compound NOT metabolized | CC[C@H](C)C(=O)O[C@H]1CCC=C2C=C[C@H](C)[C@H](CC[C@@H]3C[C@@H](O)CC(=O)O3)[C@H]21 [MEVASTATIN] |
| Compound NOT metabolized | COc1ccc2cc([C@H](C)C(=O)O)ccc2c1 [NAPROXEN] |

conditions: human gut metagenome, 24 h, 2 µM; remark: another data set of the same source

| Bacterial Biotransformation | Compound |
| --- | --- |
| Compound metabolized | CC[C@H](C)C(=O)O[C@H]1CCC=C2C=C[C@H](C)[C@H](CC[C@@H]3C[C@@H](O)CC(=O)O3)[C@H]21 [MEVASTATIN] |
| Compound metabolized | COc1ccc2cc([C@H](C)C(=O)O)ccc2c1 [NAPROXEN] |

conditions: human gut metagenome, 24 h, 2 µM; remark: another data set of the same source

| Bacterial Biotransformation | Compound |
| --- | --- |
| Compound metabolized | CC[C@H](C)C(=O)O[C@H]1CCC=C2C=C[C@H](C)[C@H](CC[C@@H]3C[C@@H](O)CC(=O)O3)[C@H]21 [MEVASTATIN] |
| Compound metabolized | COc1ccc2cc([C@H](C)C(=O)O)ccc2c1 [NAPROXEN] |

test: as §1, with “Z-003” for “Z-013”, “pig” for “rabbit”, “ERS12561803” for “ERS12561813”; conditions: 2 µM

| Bacterial Biotransformation | Compound |
| --- | --- |
| Compound NOT metabolized | CC[C@H](C)C(=O)O[C@H]1CCC=C2C=C[C@H](C)[C@H](CC[C@@H]3C[C@@H](O)CC(=O)O3)[C@H]21 [MEVASTATIN] |
| Compound NOT metabolized | COc1ccc2cc([C@H](C)C(=O)O)ccc2c1 [NAPROXEN] |

Source: ChEMBL document CHEMBL5724914, “Linking interpersonal differences in gut microbiota composition and drug biotransformation activity” (2024)
